Experimental data published in patent US20110262355A1, “COMPOSITIONS COMPRISING ENZYME-CLEAVABLE OPIOID PRODRUGS AND INHIBITORS THEREOF” (priority 2010, published 2011).
Read-outs that look alike come from different tables or passages of the source.

Tests used:
[1] = Pharmacokinetics of oxycodone prodrug Compound KC-2 or oxycodone following PO administration to rats; format: in vivo; settings: rat, KC-2 20 mg/kg vs oxycodone 10 mg/kg
[2] = male, Sprague Dawley, rat, in vivo
[3] = target: T1, human μ-opioid receptor (Homo sapiens, UniProt P35372); assay: In vitro human μ-opioid receptor binding assay
[4] = In vitro stability of Compound KC-2 to household chemicals and enzyme preparations; format: physicochemical; settings: vodka, baking soda, WINDEX, vinegar (RT or 80° C.), GNC Super Digestive, tenderizer, subtilisn (RT); 1 or 24 hr
Method: Samples were incubated as described and aliquots removed at 1 hr and 24 hr and stabilized by adding each to a solution of 50% or 100% of 85% phosphoric acid solution to achieve a final pH of less than or equal to pH 4. The stabilized aliquots were then diluted 4- to 6-fold with water, vortex-mixed and applied to HPLC.

[5] = target: T1, human μ-opioid receptor; assay: cell-based; parameters: expressed in transfected cells; host or cells: CHO; settings: agonist response, cAMP (HTRF); recombinant CHO cells; 37° C., 10 min; three separate experiments
Method: This Example measures the ability of certain compounds of the present disclosure to effect an agonist response when exposed to recombinant human μ-opioid receptor expressed in CHO cells.
A. and Uhl, G. R. (1994). […] The control reaction included 1 μM DAMGO. The reaction mixtures were incubated at 37° C. for 10 min, and the reaction product was cyclic AMP (cAMP). The samples were submitted to homogeneous time resolved fluorescence (HTRF®). EC50 values (concentration producing a half-maximal specific response) were determined by non-linear regression fit using the Hillplot software.

[6] = target: T2, trypsin from bovine pancreas (Bos taurus, UniProt P00760); assay: In vitro trypsin-mediated release of oxycodone from Compound KC-2, without or with Compound 109; format: biochemical; parameters: purchased Sigma-Aldrich T8003; host or cells: bovine pancreas; settings: 0.761 mM KC-2; 0.0228 mg/mL trypsin; 37° C.; no trypsin inhibitor
T2 sequence (P00760 24-246): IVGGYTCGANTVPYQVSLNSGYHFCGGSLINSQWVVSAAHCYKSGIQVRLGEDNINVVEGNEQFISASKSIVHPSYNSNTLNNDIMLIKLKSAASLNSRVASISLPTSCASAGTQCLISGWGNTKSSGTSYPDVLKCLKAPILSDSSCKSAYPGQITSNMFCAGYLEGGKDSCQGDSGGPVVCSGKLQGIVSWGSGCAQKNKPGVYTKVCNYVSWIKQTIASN
Description: (§1) The square symbols indicate the disappearance of Compound KC-2, and the triangle symbols depict the appearance of oxycodone, over time under the conditions described in this Example.

[7] = target: T3, trypsin (Bos taurus, UniProt P00760); assay: as above; format: biochemical, bovine; parameters: purchased Sigma-Aldrich T8003; host or cells: bovine pancreas; settings: bovine, trypsin from bovine pancreas, read-out: Pro-drug trypsin half-life, h Average ± sd (converted)
T3 sequence (P00760 24-246): T2 sequence (P00760 24-246)
Description: as §1

[8] = In vitro stability of Compound KC-3 to household chemicals and enzyme preparations; format: physicochemical; settings: vodka, baking soda, WINDEX, vinegar (RT or 80° C.), GNC Super Digestive, tenderizer, subtilisn (RT); 1 or 24 hr
Method: Samples were incubated as described. Aliquots were removed at 1 hr and 24 hr and stabilized by adding each to a solution of 50% or 100% of 85% phosphoric acid solution to achieve a final pH of less than or equal to pH 4. The stabilized aliquots were then diluted 4- to 6-fold with water, vortex-mixed and applied to HPLC.

[9] = In vivo tolerability of Compound KC-3 in rats (IV); settings: rat, Compound KC-3 97 μmol/kg, tolerated
Method: Male naïve Sprague-Dawley rats, 4 per dose, were used in the study. Rats were weighed, and then placed under a heat lamp for 15-20 minutes to dilate the lateral tail veins. […] Before dosing, rats were placed in Broome restrainers and the drug was introduced into one of the tail veins using a syringe and needle. […] Blood samples were collected 5 minutes post-dose via the saphenous vein. The rats were observed up to 24 hours.

[10] = male, Sprague Dawley, rat, in vivo; remark: listed apart in the source
[11] = target: T2, trypsin from bovine pancreas; assay: In vitro trypsin-mediated release of drug from ketone-modified opioid prodrugs KC-3 to KC-6, effect of Compound 109; settings: 0.761 mM prodrug, 37° C., no trypsin inhibitor
Description: (§2) Other reaction and sample treatment conditions were as described above.

[12] = target: T3, trypsin; assay: as above; settings: bovine, trypsin from bovine pancreas, h Average ± sd
Description: as §2

[13] = rat
[14] = Pharmacokinetics of Compound KC-5 following PO administration to rats; settings: rat; PO Compound KC-5
[15] = Pharmacokinetics of Compound KC-6 following PO administration to rats; settings: rat; PO Compound KC-6
[16] = male, Sprague Dawley, rat, in vivo; remark: listed apart in the source
[17] = target: T2, trypsin from bovine pancreas; assay: In vitro trypsin conversion of prodrugs to hydromorphone and inhibition by trypsin inhibitor; settings: with trypsin inhibitor 3,089 uM Compound 109
Method: The reactions were conducted at 37° C. for 24 hr. Samples were collected at specified time points, transferred into 0.5% formic acid in acetonitrile to stop trypsin activity and stored at less than −70° C. until analysis by LC-MS/MS.
The results are expressed as half-life of prodrug when exposed to trypsin (i.e., Prodrug trypsin half-life) in hours and rate of formation of HM per unit of trypsin.

[18] = Oral administration of Compound PC-4 and SBTI trypsin inhibitor to rats; settings: HM in rat plasma, PC-4 20 mg/kg
[19] = HM in rat plasma, PO, PC-4 20 mg/kg
[20] = pH 8, Pro-drug trypsin half-life, 0.761 mM prodrug, 241 BAEE U trypsin/mL, 37° C., no trypsin inhibitor
[21] = male, Sprague Dawley, in vivo, iv, 10 mg/kg

T1 sequence (P35372 whole entry): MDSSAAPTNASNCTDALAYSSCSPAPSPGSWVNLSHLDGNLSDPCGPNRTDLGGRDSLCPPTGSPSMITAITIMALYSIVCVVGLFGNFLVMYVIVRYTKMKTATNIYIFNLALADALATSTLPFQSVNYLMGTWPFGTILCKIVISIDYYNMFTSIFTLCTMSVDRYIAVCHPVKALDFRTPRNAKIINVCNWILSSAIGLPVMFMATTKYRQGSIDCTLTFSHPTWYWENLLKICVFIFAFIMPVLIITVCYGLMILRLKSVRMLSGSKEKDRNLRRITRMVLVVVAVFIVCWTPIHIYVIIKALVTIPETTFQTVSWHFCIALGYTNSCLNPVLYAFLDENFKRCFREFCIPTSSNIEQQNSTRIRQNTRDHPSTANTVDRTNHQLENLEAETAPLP

COc1ccc2c3c1O[C@H]1C(OC(=O)N(C)CCNC(=O)[C@H](CCCNC(=N)N)NC(C)=O)=CC[C@@]4(O)[C@@H](C2)N(C)CC[C@]314 [Compound KC-2, Oxycodone 6-(N-methyl-N-(2-N′-acetylarginylamino))ethylcarbamate]
oxycodone plasma concentrations compared to administration of oxycodone [1]: suppressed Cmax and delayed Tmax compared to administration of oxycodone | Compound conc. in CSF [2]: 61.9 ng/mL | Compound conc. in Plasma [2]: 27,200 ng/mL | Plasma/CSF partitioning coefficient [2]: 439 | IC50 [3]: 22 nM | conversion to oxycodone [4]: less than 10% | EC50 [5]: 490 nM | Rate of oxycodone formation, umols/h/umol trypsin Average ± sd [6]: 37.4 ± 0.9 umols/h/umol trypsin | half-life at 0.761 mM ([7]; pH 8, with Compound 109 (trypsin inhibitor) 2 µM ([…])): 116 ± 118 h | half-life at 0.761 mM ([7]; pH 8, 0.761 mM KC-2, 0.0228 mg/mL trypsin, 37° C., no trypsin inhibitor): 5.64 ± 0.26 h

COc1ccc2c3c1O[C@H]1C(OC(=O)N(C)CCNC(=O)[C@H](CCCNC(=N)N)NC(=O)CC(=O)O)=CC[C@@]4(O)[C@@H](C2)N(C)CC[C@]314 [Compound KC-3, N-{(S)-4-guanidino-1-[2-(methyl-[(5R,9R,13S,14S)-4,5a-epoxy-6,7-didehydro-14-hydroxy-3-methoxy-17-methylmorphinan-6-oxy]carbonyl-amino)-ethylcarbamoyl]-butyl}-malonamic acid]
conversion to oxycodone [8]: less than 10% | time to recover to normal activity [9]: ≤ 2 min | Compound conc. in CSF [10]: 34.1 ng/mL | Compound conc. in Plasma [10]: 59,225 ng/mL | Plasma/CSF partitioning coefficient [10]: 1,737 | EC50 [5]: 1600 nM | Rate of oxycodone formation, umol/h/BAEE U Average ± sd ([11]; 241 BAEE U trypsin/mL): 0.0684 ± 0.0009 umol/h/BAEE U | half-life at 0.761 mM [12, 20]: 8.92 ± 1.91 h | half-life at 0.761 mM ([12]; pH 8, with Compound 109 (trypsin inhibitor), 2 µM, Pro-drug trypsin half-life, with trypsin inhibitor Compound 109 2 uM): 43.3 ± 40.6 h

COc1ccc2c3c1O[C@H]1C(OC(=O)N(CCCCCC(=O)O)CCNC(=O)[C@H](CCCNC(=N)N)NC(C)=O)=CC[C@@]4(O)[C@@H](C2)N(C)CC[C@]314 [Compound KC-5, 6-{[2-(2-Acetylamino-5-guanidino-pentanoylamino)-ethyl]-[(5R,9R,13S,14S)-4,5a-epoxy-6,7-didehydro-14-hydroxy-3-methoxy-17-methylmorphinan-6-oxy]-1-enyloxycarbonyl-amino}-hexanoic acid]
plasma/CSF partitioning coefficient ([13]; male, Sprague Dawley, in vivo): 1,508 | Compound conc. in CSF [13, 21]: 36.4 ng/mL | Compound conc. in Plasma [13, 21]: 54,900 ng/mL | Plasma/CSF partitioning coefficient [13, 21]: 1,508 | relative plasma/CSF partitioning coefficient of prodrug to oxycodone (fold less CSF penetrant) ([13]; IV, 1,508/4.8): about 316 fold | EC50 [5]: 2000 nM | Rate of oxycodone formation, umol/h/BAEE U Average ± sd ([11]; 241 BAEE U trypsin/mL): 0.135 ± 0.005 umol/h/BAEE U | half-life at 0.761 mM [12, 20]: 1.2 ± 0.04 h | oxycodone plasma concentrations compared to administration of oxycodone [14]: suppressed Cmax and AUC and delayed Tmax compared to administration of oxycodone

COc1ccc2c3c1O[C@H]1C(OC(=O)N(C)C[C@H](NC(=O)[C@H](CCCNC(=N)N)NC(C)=O)C(=O)N(C)CC(=O)O)=CC[C@@]4(O)[C@@H](C2)N(C)CC[C@]314 [Compound KC-6, ({(S)-2-((S)-2-Acetylamino-5-guanidino-pentanoylamino)-3-[(oxycodone-enyloxycarbonyl)-methyl-amino]-propionyl]-methyl-amino)-acetic acid]
oxycodone plasma concentrations compared to administration of oxycodone [15]: suppressed Cmax and AUC and delayed Tmax compared to administration of oxycodone | Compound conc. in CSF [16]: 74.1 ng/mL | Compound conc. in Plasma [16]: 60,400 ng/mL | Plasma/CSF partitioning coefficient [16]: 815 | plasma/CSF partitioning coefficient [16]: 815 | EC50 [5]: 1800 nM | Rate of oxycodone formation, umol/h/BAEE U Average ± sd ([11]; 241 BAEE U trypsin/mL): 0.0118 ± 0.0042 umol/h/BAEE U | Rate of oxycodone formation, umol/h/BAEE U Average ± sd ([11]; 4815 BAEE U trypsin/mL): 0.00571 ± 0.0002 umol/h/BAEE U

CCN(CCNC(=O)[C@H](CCCNC(=N)N)NC(C)=O)C(=O)Oc1ccc2c3c1OC1C(=O)CCC4C(C2)N(C)CCC314 (stereo partly drawn) [Compound PC-4, [2-((S)-2-Acetylamino-5-guanidino-pentanoylamino)-ethyl]-ethyl-carbamic acid hydromorphone ester]
Rate of HM formation, umols/h/umol trypsin Average ± sd [17]: 3.27 ± 1.87 umols/h/umol trypsin | Cmax (ng/mL HM) ([18]; SBTI 0 mg/kg, 7 rats): 7.7 ± 2.3 ng/mL | Tmax ([18]; SBTI 0 mg/kg, 7 rats): 2.3 h | Cmax (ng/mL HM) ([18]; SBTI 500 mg/kg, 4 rats): 7.5 ± 2.1 ng/mL | Tmax ([18]; SBTI 500 mg/kg, 4 rats): 6.5 h | Cmax (ng/mL HM) ([19]; Compound 101 0 mg/kg, 7 rats): 7.7 ± 2.3 ng/mL | Tmax ([19]; Compound 101 0 mg/kg, 7 rats): 2.3 h | Cmax (ng/mL HM) ([19]; Compound 101 10 mg/kg, 4 rats): 4.8 ± 1.4 ng/mL | Tmax ([19]; Compound 101 10 mg/kg, 4 rats): 6.0 h
